Results: the NIST ThermoML archive (doi:10.1021/acs.jced.8b00554)
Numbers after ± are expanded uncertainties.

Assay: xn = mol fraction of the nth substance listed
Conditions: 333.15 K, Liquid, Vibrating tube method

CCCCCCCCC [nonane] + CCCO
Conditions | mass density [kg/m3]
6020 kPa, x2 = 0.1231 | 692.22 ± 4.4
6020 kPa, x2 = 0.3229 | 700.03 ± 4.5
7000 kPa, x2 = 0.2315 | 697.33 ± 4.5
7010 kPa, x2 = 0.1231 | 693.22 ± 4.4
7010 kPa, x2 = 0.3229 | 701.03 ± 4.5
7010 kPa, x2 = 0.4272 | 706.53 ± 4.5
7010 kPa, x2 = 0.7021 | 728.53 ± 4.7
7010 kPa, x2 = 0.8941 | 754.12 ± 4.8
8000 kPa, x2 = 0.3229 | 702.03 ± 4.5
8010 kPa, x2 = 0.1231 | 694.22 ± 4.5
8010 kPa, x2 = 0.7021 | 729.53 ± 4.7
8010 kPa, x2 = 0.8941 | 755.09 ± 4.8
8020 kPa, x2 = 0.2315 | 698.33 ± 4.5
8020 kPa, x2 = 0.4272 | 707.53 ± 4.5
9010 kPa, x2 = 0.2315 | 699.32 ± 4.5
9010 kPa, x2 = 0.3229 | 703.05 ± 4.5
9010 kPa, x2 = 0.4272 | 708.53 ± 4.5
9010 kPa, x2 = 0.7021 | 730.52 ± 4.7
9010 kPa, x2 = 0.8941 | 756.05 ± 4.8
9020 kPa, x2 = 0.1231 | 695.19 ± 4.5
10010 kPa, x2 = 0.1231 | 696.17 ± 4.5
10010 kPa, x2 = 0.2315 | 700.3 ± 4.5
10010 kPa, x2 = 0.3229 | 704.04 ± 4.5
10010 kPa, x2 = 0.4272 | 709.54 ± 4.5
10020 kPa, x2 = 0.7021 | 731.49 ± 4.7
10020 kPa, x2 = 0.8941 | 757 ± 4.8
11010 kPa, x2 = 0.1231 | 697.14 ± 4.5
11010 kPa, x2 = 0.2315 | 701.27 ± 4.5
11010 kPa, x2 = 0.3229 | 705.01 ± 4.5
11010 kPa, x2 = 0.4272 | 710.52 ± 4.5
11010 kPa, x2 = 0.7021 | 732.46 ± 4.7
11010 kPa, x2 = 0.8941 | 757.95 ± 4.9
12000 kPa, x2 = 0.1231 | 698.08 ± 4.5
12000 kPa, x2 = 0.2315 | 702.25 ± 4.5
12000 kPa, x2 = 0.3229 | 705.98 ± 4.5
12010 kPa, x2 = 0.4272 | 711.48 ± 4.6
12010 kPa, x2 = 0.8941 | 758.88 ± 4.9
12020 kPa, x2 = 0.7021 | 733.42 ± 4.7
13000 kPa, x2 = 0.3229 | 706.94 ± 4.5
13000 kPa, x2 = 0.8941 | 759.79 ± 4.9
13010 kPa, x2 = 0.1231 | 699.03 ± 4.5
13010 kPa, x2 = 0.4272 | 712.44 ± 4.6
13010 kPa, x2 = 0.7021 | 734.37 ± 4.7
13020 kPa, x2 = 0.2315 | 703.18 ± 4.5
14000 kPa, x2 = 0.3229 | 707.87 ± 4.5
14010 kPa, x2 = 0.1231 | 699.96 ± 4.5
